Data on 1 compound can be found in patent US7598399B2, “Methods for synthesis of 3-amino-1-arylpropyl indoles” (Roche Palo Alto LLC, priority 2005, dated 2009).

One may read the melting point as the temperature of the solid-liquid transition.

Molecules are shown by their SMILES.

`CNCC[C@@H](c1ccccc1)c1c[nH]c2cccc(OC)c12` [[(S)-3-(4-Methoxy-1H-indol-3-yl)-3-phenyl-propyl]-methyl-amine] had a melting point of 134 to 137 °C.
